Test results published in patent US20070004660A1, “Synergistic Modulation of Flt3 Kinase Using Alkylquinolines and Alkylquinazolines” (priority 2005, published 2007).

What was measured:
MV4-11 cells = test: Inhibition of MV4-11 cell proliferation (CellTiterGlo, 72 h); assay type: cell-based; settings: Homo sapiens; 72 h growth inhibition; uncertainty ±20%
[1] = target: T1, isolated kinase domain of the human FLT3 receptor (a.a. 571-993) (Homo sapiens, UniProt P36888); test: FLT3 fluorescence polarization kinase assay; assay type: biochemical; settings: 150 uM ATP; uncertainty ±10%
T1 construct: human FLT3 receptor (a.a. 571-993)
T1 sequence (P36888 571-993): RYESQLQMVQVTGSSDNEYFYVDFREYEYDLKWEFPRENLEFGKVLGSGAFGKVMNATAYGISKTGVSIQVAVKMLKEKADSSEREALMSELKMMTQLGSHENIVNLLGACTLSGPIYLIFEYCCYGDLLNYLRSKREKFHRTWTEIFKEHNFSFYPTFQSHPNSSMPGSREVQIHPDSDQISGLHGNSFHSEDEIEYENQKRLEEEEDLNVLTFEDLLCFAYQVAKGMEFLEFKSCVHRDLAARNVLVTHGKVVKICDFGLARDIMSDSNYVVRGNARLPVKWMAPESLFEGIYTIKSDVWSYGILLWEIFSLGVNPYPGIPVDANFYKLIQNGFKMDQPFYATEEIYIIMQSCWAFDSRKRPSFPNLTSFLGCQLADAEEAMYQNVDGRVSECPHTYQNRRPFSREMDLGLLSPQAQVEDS

IC50 (MV4-11 cells) [nM] | IC50 [1] [nM] | SMILES
185 | 130 | CS(=O)(=O)N1CC(Oc2ccc3c(C4CCN(C(=O)Nc5ccc(N6CCCC6)cc5)CC4)ncnc3c2)C1 [Example 171, 4-[7-(1-Methanesulfonyl-azetidin-3-yloxy)-quinazolin-4-yl]-piperidine-1-carboxylic acid (4-pyrrolidin-1-yl-phenyl)-amide]
88 | 277 | O=C(Nc1ccc(N2CCCC2)cc1)N1CCC(c2ncnc3cc(O[C@H]4CCOC4)ccc23)CC1 [Compound 190, (S)-4-[7-(Tetrahydro-furan-3-yloxy)-quinazolin-4-yl]-piperidine-1-carboxylic acid (4-pyrrolidin-1-yl-phenyl)-amide]
30 | 46 | CC(C)Oc1ccc(NC(=O)N2CCC(c3ncnc4ccc(C#CCN5CCOCC5)cc34)CC2)cc1 [Example 15, 4-[6-(3-Morpholin-4-yl-prop-1-ynyl)-quinazolin-4-yl]-piperidine-1-carboxylic acid (4-isopropoxy-phenyl)-amide]
